The source of these data is paper PMC9961069 (Metabolites, 2023).

In one experiment the target is T1, purified human DHFR (Homo sapiens, UniProt P00374).
T1 construct: made in house; host or cells: E. coli BL21 (DE3) T1R pRARE2, pNIC-Bsa4 plasmid
T1 sequence (P00374 1-187): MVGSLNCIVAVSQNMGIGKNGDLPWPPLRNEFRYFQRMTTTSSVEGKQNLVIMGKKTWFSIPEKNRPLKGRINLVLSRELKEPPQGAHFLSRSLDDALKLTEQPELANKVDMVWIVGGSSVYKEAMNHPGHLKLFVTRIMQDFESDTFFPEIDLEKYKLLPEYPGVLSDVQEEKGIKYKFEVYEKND
Kind of experiment: DHFR enzymatic inhibition assay (NADPH absorbance at 340 nm). It is filed as biochemical. Particulars: 200 nM DHFR, 137.5 μM DHF, 125 μM NADPH; n = 2; read-out: IC50. As to the method: Working stocks of each inhibitor were created so that the final concentration of DMSO in each reaction was 2% in a final reaction volume of 100 μL. […] Reactions were prepared on ice in 384-well plates. […] Consumption of NADPH by measuring absorbance at 340 nm was used to monitor the progress of the reaction. Readings were taken every 5 min for 1 h at 37 °C using a Synergy MX microplate reader (BioTek).
Percent inhibition relative to the no-inhibitor control was determined using Equation (1). (1) % Inhibition=A340Inhibitor−A340DMSO Control/A340No DHFR−A340DMSO Control×100
Percent inhibition data were then fit to the four-parameter logistic model (Equation (2)) in GraphPad Prism 9.4.1 to determine half-maximal inhibitory concentrations (IC50):(2) y=Bottom+Top−Bottom/1+IC50/x^Hill slope where y represents the percent inhibition, x represents the concentration of inhibitor (μM), the bottom and top represent the bottom and top plateaus, and the Hill slope represents the slope factor. Each experiment contained duplicates of each sample, and each experiment was performed 2 times (n = 2). An ordinary one-way ANOVA was used to test for statistical significance between treatments.

The test system of the next experiment is MDA-MB-231 cells. Kind of experiment: Resazurin viability assay with or without folinic acid, MDA-MB-231. It is filed as cell-based, Human. The settings on record: 72 h; for Relative Viability (%) – Inhibitor + FA Treatment: MDA-MB-231, 10 μM + 300 μg/mL folinic acid; for Relative Viability (%) – Inhibitor Alone: MDA-MB-231, 10 μM, relative to DMSO. On the procedure:
(§1) The incorporation and metabolism of resazurin to resorufin was used to monitor cell viability. MDA-MB-468, MCF7, and MDA-MB-231 cells were grown in 96-well plates with a total of 5000 cells per well in a total volume of 180 μL for 24 h, as described above. After 24 h of growth, cells were treated with increasing concentrations of compounds (0.0457–100 μM) for 72 h. A vehicle control was also performed. […] The volume of treatment added to each well was 20 μL. For folinic acid rescue experiments, 5000 cells were treated with 10 μM compound with or without 300 μg/mL folinic acid (Supelco). After 72 h of treatment, resazurin was added to a final concentration of 44 μM, and cells were incubated for an additional 4 h at 37 °C. The fluorescence of resorufin was monitored on a Synergy MX microplate reader (BioTek) using an excitation wavelength of 540 nm and an emission wavelength of 600 nm. Percent viability relative to the DMSO control was determined. Each treatment was performed in triplicate, and each individual experiment was repeated three times (n = 3).
For orientation: Resazurin is reduced to fluorescent resorufin, in cell work by metabolically active cells.

The subject of a further experiment is MCF-7 cells. In words: Resazurin viability assay with or without folinic acid, MCF-7. It is filed as cell-based, Human. The settings on record: 72 h; for Relative Viability (%) – Inhibitor + FA Treatment: MCF-7, 10 μM + 300 μg/mL folinic acid; for Relative Viability (%) – Inhibitor Alone: MCF-7, 10 μM, relative to DMSO; for Rescue of viability impairment by folinic acid: MCF-7, 10 μM ± 300 μg/mL FA. As to the method:
as §1

Experiment [1] has as its system T2, DHFR in MDA-MB-468 lysates.
T2 construct: reactions containing 55 μg MDA-MB-468 lysate; endogenous in cells; host or cells: MDA-MB-468
Kind of experiment: Lysate cellular thermal shift assay (CETSA) for DHFR. Type of experiment: binding, Human. The settings on record: 10 μM, MDA-MB-468 lysate, 45 °C for 3 min; DMSO at 37 °C = 100%. As to the method: Trypsinized MDA-MB-468 cells were harvested by centrifugation at 200× g for 5 min and washed with PBS supplemented with EDTA-free PIC (Roche) and flash frozen for storage at −80 °C. Cells were lysed by resuspension in 60 μL PBS/PIC per 1 × 10^6 cells. Cells were lysed by three freeze-thaw cycles, where cells were frozen in an ethanol/dry ice bath for 3 min, immediately followed by incubation in a 37 °C water bath for 3 min. The insoluble fraction was removed by centrifugation at 20,000× g for 20 min at 4 °C. The supernatant containing the soluble lysate was removed and saved for subsequent steps.
After incubation, each reaction was transferred to a 1.5 mL tube and centrifuged at 20,000× g for 20 min at 4 °C to remove the insoluble proteins. After centrifugation, 18 μL of supernatant was carefully removed from each reaction, without disturbing any pelleted aggregates, and added to 4.5 μL of 5× SDS-PAGE loading buffer. 11 μL of each reaction was loaded onto a gel in duplicate, and proteins were detected by Western blot (as described below). Resulting band densities were fit to the Boltzmann equation to determine the melting temperature (Tm):(3) y=Bottom+Top−Bottom/1+e^Tm−x/Slope
To rescue the thermal degradation of DHFR by inhibitors, samples containing 10 μM inhibitor, 55 μg lysate, and 1% DMSO in a total volume of 28 μL in DHFR buffer were prepared in PCR tubes and incubated at room temperature for 20 min. Two DMSO-only controls were also prepared. Reactions containing inhibitors were then incubated at 45 °C for 3 min. One DMSO-only control was also heated at 45 °C for 3 min, and the other control was heated at 37 °C for 3 min. The soluble protein fraction was separated from the insoluble proteins by centrifugation, and proteins were separated by SDS-PAGE, as described above, and analyzed via Western blot, as described below. Each experiment was repeated 3 times.
Proteins were electrophoretically separated on a 10% gel, and proteins were transferred to a methanol-activated PVDF membrane using the Trans-Blot Turbo transfer system (Bio-Rad) for 7 min at 1.3 A and 25 V in Trans-Blot Turbo transfer buffer (Bio-Rad). Membranes were blocked with 5% skim milk w/v in TBS-T (20 mM Tris, 150 mM NaCl, 0.05% Tween-20) for 1 h at room temperature. […] The horseradish peroxidase (HRP)-linked anti-mouse IgG secondary antibody (NA931, Cytiva; 1:3000) was added for 1 h at room temperature in 5% skim milk w/v in TBS-T. Signal was detected by adding Immobilon Forte Western HRP Substrate (Millipore), and chemiluminescence was captured on a Sapphire Biomolecular Imager (Azure Biosystems). Band densities were determined using ImageJ (Fiji). The band intensity of DHFR was normalized to the thermostable loading control SOD1 [22].

Another experiment concerns MDA-MB-468 cells. In words: Resazurin viability assay with or without folinic acid, MDA-MB-468. It is filed as cell-based, Human. The settings on record: 72 h; for Relative Viability (%) – Inhibitor + FA Treatment: MDA-MB-468, 10 μM + 300 μg/mL folinic acid; for Relative Viability (%) – Inhibitor Alone: MDA-MB-468, 10 μM, relative to DMSO. As to the method: as §1

As usually defined, the IC50 is the point on the concentration scale where inhibition reaches its midpoint.

As to `CCc1nc(N)nc(N)c1-c1ccc(Cl)c(Cl)c1` [compound 3062, etoprine], the 50% inhibitory concentration (IC50) at purified human DHFR is 8.6 ± 2.7 µM. The “Relative Viability (%) – Inhibitor + FA Treatment” value turned out to be 65.52 ± 15.0% in the experiment on MDA-MB-231 cells, 100.10 ± 8.2% with MCF-7 cells and 81.08 ± 13.2% with MDA-MB-468 cells. Moreover, the “Relative Viability (%) – Inhibitor Alone” value with MDA-MB-231 cells is on record as 52.76 ± 12.1%; in the experiment on MCF-7 cells, 65.16 ± 9.0%; with MDA-MB-468 cells, 65.38 ± 1.3%. In addition, in experiment [1], the “Normalized Band Density (%) of soluble DHFR” value is reported as 83.56 ± 52.1%.

Consider `CC1(C)N=C(N)N=C(N)N1c1ccc(Cl)c(Cl)c1` [compound 3077], for which, in the experiment on MCF-7 cells, the “Rescue of viability impairment by folinic acid” value is reported as “small yet statistically significant rescue”.

On to `CCS(=O)(=O)O.CN(C)C(=O)c1cccc(COc2ccc(N3C(N)=NC(N)=NC3(C)C)cc2Cl)c1` [compound 139105, triazinate], for which the “Relative Viability (%) – Inhibitor + FA Treatment” value in the experiment with MDA-MB-231 cells is 65.85 ± 13.7%; in the experiment on MCF-7 cells, 82.83 ± 9.7%; with MDA-MB-468 cells, 81.38 ± 16.9%. The “Rescue of viability impairment by folinic acid” value in the experiment on MDA-MB-231 cells (MDA-MB-231, 10 μM ± 300 μg/mL FA) was “not rescued”; in the experiment with MCF-7 cells, “not rescued”; in the experiment with MDA-MB-468 cells (MDA-MB-468, 10 μM ± 300 μg/mL FA), “statistically significant rescue”. Moreover, the “Relative Viability (%) – Inhibitor Alone” value was found to be 46.35 ± 9.0% with MDA-MB-231 cells, 66.53 ± 8.1% in the experiment with MCF-7 cells and 57.09 ± 8.0% in the experiment with MDA-MB-468 cells. In addition, in experiment [1], the “Normalized Band Density (%) of soluble DHFR” value is 86.05 ± 21.9%.
